“And” between values parts separate entries of the source, which are not always exact repeats. Equal values may be shown once.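 A five-concentration, 48-hour dose response in 96-well plates underlies each endpoint, interpolated linearly between surrounding concentrations. GI50 marks 50% less growth. TGI is the concentration that stops growth completely.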
Experiments:
Test in all cases: growth of human tumour cells (NCI), 48 h
SK-MEL-28 melanoma = test system: SK-MEL-28 melanoma
K-562 leukemia = test system: K-562 leukemia
OVCAR-8 ovarian = test system: OVCAR-8 ovarian
M14 melanoma = test system: M14 melanoma
SF-295 CNS = test system: SF-295 CNS
RPMI-8226 leukemia = test system: RPMI-8226 leukemia
T-47D breast = test system: T-47D breast
HCT-116 colon = test system: HCT-116 colon
NCI-H460 lung = test system: NCI-H460 lung
SNB-75 CNS = test system: SNB-75 CNS

Row | SMILES | GI50 (SK-MEL-28 melanoma) | TGI (SK-MEL-28 melanoma) | GI50 (K-562 leukemia) | TGI (K-562 leukemia) | GI50 (OVCAR-8 ovarian) | TGI (OVCAR-8 ovarian) | GI50 (M14 melanoma) | TGI (M14 melanoma) | GI50 (SF-295 CNS) | TGI (SF-295 CNS) | GI50 (RPMI-8226 leukemia) | TGI (RPMI-8226 leukemia) | GI50 (T-47D breast) | TGI (T-47D breast) | GI50 (HCT-116 colon) | TGI (HCT-116 colon) | GI50 (NCI-H460 lung) | TGI (NCI-H460 lung) | GI50 (SNB-75 CNS) | TGI (SNB-75 CNS)
1 | COC(=O)c1c2c(c(C)[n+]([O-])c1C)C(=O)C(NCc1ccc(F)c(Cl)c1)=CC2=O | 3030 nM | 13200 nM | 2670 nM | > 100000 nM | 2380 nM | 13900 nM | 1410 nM | 3120 nM | 1620 nM | 4260 nM | 3080 nM | 24100 nM | 1840 nM | 5090 nM | 2340 nM | 10200 nM | 1510 nM | 9090 nM | 2740 nM | 9320 nM
2 | N#Cc1ccc(-n2cnc(NC(=O)[C@H]3CCN(C#N)C3)c2)cc1 | 2640 nM | > 100000 nM | 2670 nM | > 100000 nM | 1920 nM | > 100000 nM | 757 nM | 6280 nM | 2790 nM | > 66300 nM | 1710 nM | 7460 nM | 706 nM | 6860 nM | 1100 nM | 9270 nM | 2350 nM | > 34700 nM | 519 nM | 3740 nM
3 | N#Cc1cccc(Nc2nccc(-c3cnn4ncccc34)n2)c1 | 4.08 nM | 12.5 nM | 7.82 nM | > 25000 nM | 6.5 nM | > 25000 nM | 5.25 nM | 12.5 nM | 4.87 nM | 22.3 nM | 7.63 nM | 21.2 nM | 18.2 nM | 219 nM | 4.43 nM | 1340 nM | 8.37 nM | > 25000 nM | 4.94 nM | 12 nM
4 | Cc1cc(N2CCN(C)CC2)nc(NC2CCCC(Nc3ccnc4cc(Cl)ccc34)C2)n1 (stereo not given) | 1800 nM | 3700 nM | 451 nM | 3920 nM | 3750 nM | 15500 nM | 1700 nM | 3460 nM | 1680 nM | 3250 nM | 1680 nM | 4950 nM | 1910 nM | 4600 nM | 1460 nM | 3740 nM | 2160 nM | 5070 nM | 1650 nM | 5000 nM
5 | CC/C(=C(\c1ccc(O)cc1)c1ccc(OCCNC)cc1)c1ccccc1 | 1670 nM and 1550 nM and 1740 nM | 3040 nM and 2940 nM and 3280 nM | 2000 nM and 1740 nM and 2110 nM | 4880 nM and 3890 nM and 5660 nM | 2600 nM and 2180 nM and 2400 nM | 6660 nM and 5280 nM and 5780 nM | 1800 nM and 1750 nM and 1860 nM | 3250 nM and 3240 nM and 3630 nM | 1720 nM and 1840 nM and 1940 nM | 3480 nM and 3550 nM and 4090 nM | 2080 nM and 1990 nM and 2270 nM | 5050 nM and 4580 nM and 5730 nM | 1300 nM and 1210 nM and 1250 nM | 3830 nM and 3430 nM and 4010 nM | 1610 nM and 1540 nM and 1730 nM | 2980 nM and 2950 nM and 3220 nM | 1980 nM and 1830 nM and 1890 nM | 3670 nM and 3450 nM and 3660 nM | 2150 nM and 1960 nM and 1320 nM | 7390 nM and 6810 nM and 2760 nM
6 | C=C1CC2(OC1=O)c1ccccc1CCc1ccccc12 | – | 3350 nM | – | 4810 nM | – | 9900 nM | – | 3910 nM | – | 29800 nM | – | 7240 nM | – | 3600 nM | – | 2750 nM | – | 26700 nM | – | 15600 nM
7 | C=CC(=O)Nc1cc2c(Nc3ccc(OCc4ccccn4)c(Cl)c3)ncnc2cc1OCCN1CCOCC1 | 5110 nM | 19300 nM | 2790 nM | > 100000 nM | 5260 nM | > 100000 nM | 4180 nM | 19600 nM | 4870 nM | > 100000 nM | 2150 nM | > 27600 nM | < 18.1 nM | > 100000 nM | 2990 nM | 14500 nM | 4280 nM | > 100000 nM | 2090 nM | > 74300 nM

Source: PubChem BioAssay (NCI)
